Reference: paper PMC9138141, “Design, Spectral Characteristics, Photostability, and Possibilities for Practical Application of BODIPY FL-Labeled Thioterpenoid” (Bioengineering, 2022)

Columns and labels:
[1] = Electronic absorption spectra in organic solvents; assay type: physicochemical
Protocol: (§1) The absorption and emission spectra of dyes solutions (in the range of 10^−6 to 10^−5 M) were recorded on CM 2203 spectrofluorometer (SOLAR) in a 10 mm of absorbing layer thickness at T = 25 ± 0.1 °C. The fluorescence quantum yield (φ), the fluorescence lifetime (τ), the rate constants of radiative processes (krad), and-radiative deactivation (knr) were obtained to use by the standard procedure. The fluorescence quantum yields (φ) of compounds were measured using the standard method (using standard Rhodamine 6G). The φ and τ errors were 10–15 %. The Stokes shift ( ΔλSt ) was calculated by the formula: […]

[2] = Luminescent characteristics (fluorescence) in organic solvents; assay type: physicochemical; conditions: for λmaxfl: λex 470 nm
Protocol: as §1

[3] = Photobleaching (photodegradation) under UV irradiation at 365 nm; assay type: physicochemical
Protocol: The photofading was carried out in quartz cells. The BODIPY solutions in cyclohexane (toluene, 1-octanol, DMSO with c = ~1·10^−5 mol·L^−1) were irradiated with monochromatic light (mercury lamp 250 W with a light filter Carl Zeiss JENA, at λ = 365 nm and room temperature). The area of the light flux was 2.02 cm^2 at a specific power W365 = 4.04 mW·cm^−2 of the UV lamp. The irreversible bleaching of the luminophores at the absorption peak was monitored as a function of time. The EAS of the dye solution was recorded at equal intervals of irradiation (through 5–20 min) on a spectrofluorometer SM2203 in the 300–600 nm wavelength range. The half-life (t1/2) was defined as the time during which the chromophore is destroyed by 50%. The error in determining of t1/2 is 3–5%.
The observed photooxidation rate constants (kobs) were determined by the equation ln(At/A0) = kobs∙t, where A0 and At are the initial and current optical density at the maximum of the long-wavelength absorption band, respectively, and t is the time of irradiation of the sample with UV light.

[4] = system: laboratory mice erythrocytes; assay: Hemolytic activity (erythrotoxicity); assay type: cell-based; conditions: 20 µM, entire incubation period 5 h, 37 °C, PBS pH 7.4
Protocol: A 0.5% (v/v) suspension of laboratory mice erythrocytes in phosphate-buffered saline (PBS, pH 7.4) was used. The hemolytic activity (erythrotoxicity) of the compounds 2 and 6 was assessed by the degree of erythrocyte hemolysis 1, 3, and 5 h after the addition of solutions of the test compounds in DMSO (final concentration 20 μM). The erythrocyte suspension was incubated in a thermostatic shaker Biosan ES-20 with slow stirring at 37 °C temperature for 5 h. After 1, 3, and 5 h, an aliquot was taken, centrifuged, the degree of hemolysis was determined by the hemoglobin content in the supernatant on a Thermo Spectromic Genesys 20 spectrophotometer at λ = 541 nm. The percentage of hemolysis was calculated relative to the total hemolysis of the sample.

[5] = system: laboratory mice erythrocytes; assay: Penetration into RBC (fluorescence of hemolysates and of residual medium); assay type: cell-based
Protocol: To assess the rate of penetration of the BODIPY 2 and its conjugate with a thioterpenoid 6 into RBC, the compounds were added to a suspension of erythrocytes (final concentration 20 μM) and incubated in a thermostatic shaker Biosan ES-20 with slow stirring at 37 °C. After 10, 30, and 60 min, an aliquot was taken and centrifuged to separate erythrocytes from the incubation medium containing the BODIPY 2 or conjugate 6. Erythrocytes were washed three times with PBS, hemolyzed by adding H2O, DMSO was added, and the fluorescence spectra of hemolysates were studied using a Fluorat-02-Panorama spectrofluorometer (Lumex, Saint Petersburg, Russia). The binding of the BODIPY 2 or conjugate 6 to cells was judged from the fluorescence intensity of the corresponding compounds in hemolysates. DMSO was added to the medium (PBS) remaining after cell incubation, and the corresponding fluorescence spectra were also analyzed. Its intensity was used to judge the residual content of the studied compounds in PBS.

RBC = assay: Uptake by erythrocytes visualized with CytoFLEX; assay type: cell-based, mice; conditions: 0.1 µM, 10 min, 488/521 nm λex/λem
Protocol: The uptake of compounds by erythrocytes was visualized using CytoFLEX SRT (Beckman Coulter) (0.2% suspension of RBC, compound concentration 0.1 μM), exposure time 10 min. Each experiment was carried out in 5–15 replicates. Statistical analysis was conducted using Microsoft Office Excel 2007 software packages. The data represent the mean ± SE.

[6] = Solubility in water / micellar solution (NMR samples); assay type: physicochemical; conditions: DPC micelles, D2O
[7] = range over the solvents studied

## CC1=CC(C)=[N+]2C1=C(CCCC(=O)OCCSC1CC3CCC1(C)C3(C)C)c1c(C)cc(C)n1[B-]2(F)F (stereo not shown) [Compound 6]
[1]; 1-butanol
  ε, molar absorption coefficient: 66887 L/mol/cm
  λmaxabs S0→S1: 501 nm
  λmaxabs S0→S2: 355–366 nm
[1]; 1-octanol
  ε, molar absorption coefficient: 68275 L/mol/cm
  λmaxabs S0→S1: 501 nm
  λmaxabs S0→S2: 355–363 nm
[1]; 1-propanol
  ε, molar absorption coefficient: 68931 L/mol/cm
  λmaxabs S0→S1: 500 nm
  λmaxabs S0→S2: 356–361 nm
[1]; DMF
  ε, molar absorption coefficient: 70218 L/mol/cm
  λmaxabs S0→S1: 499 nm
  λmaxabs S0→S2: 357–361 nm
[1]; DMSO
  ε, molar absorption coefficient: 68188 L/mol/cm
  λmaxabs S0→S1: 500 nm
  λmaxabs S0→S2: 355–360 nm
[1]; at 498–503 nm, organic solvents, in L/mol·cm
  extinction coefficient ɛ, range: 64,000–78,000
[1]; chloroform
  ε, molar absorption coefficient: 76900 L/mol/cm
  λmaxabs S0→S1: 503 nm
  λmaxabs S0→S2: 352–363 nm
[1]; cyclohexane
  ε, molar absorption coefficient: 75390 L/mol/cm
  λmaxabs S0→S1: 502 nm
  λmaxabs S0→S2: 357–362 nm
[1]; ethanol
  ε, molar absorption coefficient: 64235 L/mol/cm
  λmaxabs S0→S1: 498 nm
  λmaxabs S0→S2: 359–361 nm
[1]; toluene
  ε, molar absorption coefficient: 78830 L/mol/cm
  λmaxabs S0→S1: 503 nm
  λmaxabs S0→S2: 352–360 nm
[2]; 1-butanol
  ΔλSt, Stokes shift: 15 nm
  φ, fluorescence quantum yield: 0.884
  λmaxfl: 516 nm
[2]; 1-octanol
  ΔλSt, Stokes shift: 13 nm
  φ, fluorescence quantum yield: 0.941
  λmaxfl: 514 nm
[2]; 1-propanol
  ΔλSt, Stokes shift: 14 nm
  φ, fluorescence quantum yield: 0.861
  λmaxfl: 514 nm
[2]; DMF
  ΔλSt, Stokes shift: 16 nm
  φ, fluorescence quantum yield: 0.833
  λmaxfl: 515 nm
[2]; DMF and DMSO compared to cyclohexane
  increase of nonradiative deactivation constant knr: 200–300 times
[2]; DMSO
  ΔλSt, Stokes shift: 15 nm
  φ, fluorescence quantum yield: 0.763
  λmaxfl: 515 nm
[2]; at 514–519 nm, organic solvents
  fluorescence quantum yield φ, range: 76–100%
[2]; chloroform
  ΔλSt, Stokes shift: 14 nm
  φ, fluorescence quantum yield: 0.878
  λmaxfl: 517 nm
[2]; cyclohexane
  ΔλSt, Stokes shift: 13 nm
  φ, fluorescence quantum yield: 0.999
  λmaxfl: 515 nm
[2]; electron-donating media
  fluorescence quenching: 16–24%
[2]; ethanol
  ΔλSt, Stokes shift: 16 nm
  φ, fluorescence quantum yield: 0.857
  λmaxfl: 514 nm
[2]; ethanol, 1-propanol, 1-butanol, 1-octanol
  increase of fluorescence quantum yield in the homologous series of alcohols: ~ 8%
[2]; [7]
  constants of radiative processes (krad): 5.96–8.33 × 10^7 s^−1
  fluorescence lifetime: 10.2–16.0 ns
[2]; toluene
  ΔλSt, Stokes shift: 16 nm
  φ, fluorescence quantum yield: 0.867
  λmaxfl: 519 nm
[2]; λex = 470 nm, all solvents
  emission band maxima λmaxfl, range: 510–519 nm
[3]; DMSO compared to cyclohexane
  increase of photodegradation (photooxidation) efficiency in DMSO: > 10 times
[3]; UV irradiation
  increase of photostability compared to the meso-unsubstituted analog: ~ 2 times
[3]; studied solvents
  half-life increase / photodestruction rate constant decrease compared to 7: 1.5–2.2 times
[4]
  hemolysis of RBC (erythrotoxicity): did not exceed the spontaneous level
[5]; 20 μM, 10, 30, 60 min incubation, RBC washed three times with PBS
  penetration into erythrocytes (fluorescence of RBC hemolysates): actively penetrates erythrocytes
[5]; 20 μM, 60 min incubation, PBS
  absorption by RBC from the incubation medium (decline of supernatant fluorescence): more intensively than the initial BODIPY 2
RBC
  relative content of BODIPY-positive cells: more than an order of magnitude higher

## CC1(C)C2CC=C(CO)C1C2 (stereo not shown) [myrtenol]
[6]
  solubility in the micellar solution: better solubility
